Data from US20240368181A1, “QUINOXALINE DERIVATIVES AND USES THEREOF” (Black Diamond Therapeutics, Inc., priority 2021, published 2024).
pIC50: −log10 of the molar value.

Tests used:
Format in all cases: cell-based
[1] = test system: RT-112 (FGFR3-Tacc3 fusion) cells; test: cell proliferation assay (CellTiterGlo), RT-112 cells; conditions: Homo sapiens, RT-112, RT112 cells, 72 hours
Summary of the method: (§1)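 Suspended cells plated; DMSO or compound dose range added; intracellular ATP read by CellTiterGlo luminescence; IC50 vs vehicle-normalized viability.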

[2] = test system: UM-UC-14 (FGFR3-S249C) cells; test: cell proliferation assay (CellTiterGlo), UM-UC-14 cells; conditions: UMUC14, 72 h
Summary of the method: as §1

[3] = test system: DMS-114 (FGFR1 overexpression) cells; test: cell proliferation assay (CellTiterGlo), DMS-114 cells; conditions: Homo sapiens, DMS-114, 72 h
Summary of the method: as §1

[4] = test system: SNU-16 (FGFR2-amplification) cells; test: cell proliferation assay (CellTiterGlo), SNU-16 cells; conditions: Homo sapiens, 72 hours
Summary of the method: as §1

Cc1nc2ccc(Oc3ccc4ncc(-c5cnn(C6CN(C(F)(F)F)C6)c5)nc4c3Cl)cc2[nH]1 [Compound 200]
pIC50 [1]: 6.40 to 7.00 | pIC50 [2]: 6.40 to 7.00 | pIC50 [3]: ≤ 6.40 | pIC50 [4]: 6.40 to 7.00

COC1CN([C@H]2C[C@@H](n3cc(-c4cnc5ccc(Oc6ccc7nc(C)[nH]c7c6)c(Cl)c5n4)cn3)C2)C1 [Compound 201]
pIC50 [1]: 7.00 to 7.70 | pIC50 [2]: 7.00 to 7.70 | pIC50 [3]: ≤ 6.40 | pIC50 [4]: 7.00 to 7.70

COC1CN([C@H]2C[C@H](n3cc(-c4cnc5ccc(Oc6ccc7nc(C)[nH]c7c6)c(Cl)c5n4)cn3)C2)C1 [Compound 202]
pIC50 [1]: 7.00 to 7.70 | pIC50 [2]: 7.00 to 7.70 | pIC50 [3]: ≤ 6.40 | pIC50 [4]: 7.00 to 7.70

Cc1nc2ccc(Oc3ccc4ncc(-c5cnn([C@H]6C[C@H](N7C[C@@H]8C[C@H]7CO8)C6)c5)nc4c3Cl)cc2[nH]1 [Compound 203]
pIC50 [1]: 7.00 to 7.70 | pIC50 [2]: 7.00 to 7.70 | pIC50 [3]: ≤ 6.40 | pIC50 [4]: 7.00 to 7.70

Cc1nc2ccc(Oc3ccc4ncc(-c5cnn([C@H]6C[C@@H](N7C[C@@H]8C[C@H]7CO8)C6)c5)nc4c3Cl)cc2[nH]1 [Compound 204]
pIC50 [1]: 7.00 to 7.70 | pIC50 [2]: 7.00 to 7.70 | pIC50 [3]: ≤ 6.40 | pIC50 [4]: 7.00 to 7.70

Cc1nc2ccc(Oc3ccc4ncc(-c5cnn(C6CC(F)(F)C6)c5)nc4c3Cl)cc2[nH]1 [Compound 205]
pIC50 [1]: 6.40 to 7.00 | pIC50 [2]: 6.40 to 7.00 | pIC50 [3]: ≤ 6.40 | pIC50 [4]: 6.40 to 7.00

Cc1nc2ccc(Oc3ccc4ncc(-c5cnn([C@H]6C[C@H](N7C[C@H]8C[C@@H]7CO8)C6)c5)nc4c3Cl)cc2[nH]1 [Compound 206]
pIC50 [1]: 7.00 to 7.70 | pIC50 [2]: 7.00 to 7.70 | pIC50 [3]: 6.40 to 7.00 | pIC50 [4]: 7.00 to 7.70

Cc1nc2ccc(Oc3ccc4ncc(-c5cnn([C@H]6C[C@@H](N7C[C@H]8C[C@@H]7CO8)C6)c5)nc4c3Cl)cc2[nH]1 [Compound 207]
pIC50 [1]: 7.00 to 7.70 | pIC50 [2]: 7.00 to 7.70 | pIC50 [3]: 6.40 to 7.00 | pIC50 [4]: 7.00 to 7.70

Cc1nc2ccc(Oc3ccc4ncc(-c5cnn(CC(=O)NCC(C)(C)NC=O)c5)nc4c3Cl)cc2[nH]1 [Compound 208]
pIC50 [1]: 6.40 to 7.00 | pIC50 [2]: ≤ 6.40 | pIC50 [3]: ≤ 6.40 | pIC50 [4]: 6.40 to 7.00

Cc1nc2ccc(Oc3ccc4ncc(-c5cnn(C(C)(C)C(=O)N6CCOCC6)c5)nc4c3Cl)cc2[nH]1 [Compound 209]
pIC50 [1]: 7.00 to 7.70 | pIC50 [2]: 6.40 to 7.00 | pIC50 [3]: ≤ 6.40 | pIC50 [4]: 6.40 to 7.00

Cc1nc2ccc(Oc3ccc4ncc(-c5cnn(C(C)(C)C(=O)N6CC[C@@H](F)C6)c5)nc4c3Cl)cc2[nH]1 [Compound 210]
pIC50 [1]: 7.00 to 7.70 | pIC50 [2]: 6.40 to 7.00 | pIC50 [3]: ≤ 6.40 | pIC50 [4]: 6.40 to 7.00

Cc1nc2ccc(Oc3ccc4ncc(-c5cnn(C6CCC(F)(F)C6)c5)nc4c3Cl)cc2[nH]1 (stereo not drawn) [Compound 211]
pIC50 [1]: 6.40 to 7.00 | pIC50 [2]: 6.40 to 7.00 | pIC50 [3]: ≤ 6.40 | pIC50 [4]: 6.40 to 7.00

Cc1nc2ccc(Oc3ccc4ncc(-c5cnn([C@H]6CCN(C7COC7)C[C@@H]6F)c5)nc4c3C)cc2[nH]1 [Compound 212]
pIC50 [1]: 7.00 to 7.70 | pIC50 [2]: 7.00 to 7.70 | pIC50 [3]: 6.40 to 7.00 | pIC50 [4]: 7.00 to 7.70

Cc1nc2ccc(Oc3ccc4ncc(-c5cnn([C@H]6C[C@@H](N7CC(O)C7)C6)c5)nc4c3Cl)cc2[nH]1 [Compound 213]
pIC50 [1]: 7.00 to 7.70 | pIC50 [2]: 7.00 to 7.70 | pIC50 [3]: 6.40 to 7.00 | pIC50 [4]: 7.00 to 7.70

Cc1nc2ccc(Oc3ccc4ncc(-c5cnn([C@H]6C[C@H](N7CC(O)C7)C6)c5)nc4c3Cl)cc2[nH]1 [Compound 214]
pIC50 [1]: 7.00 to 7.70 | pIC50 [2]: 7.00 to 7.70 | pIC50 [3]: 6.40 to 7.00 | pIC50 [4]: 7.00 to 7.70

Cc1nc2ccc(Oc3ccc4ncc(-c5cnn(CCN6CCCC6=O)c5)nc4c3Cl)cc2[nH]1 [Compound 215]
pIC50 [1]: 7.00 to 7.70 | pIC50 [2]: 7.00 to 7.70 | pIC50 [3]: ≤ 6.40 | pIC50 [4]: 7.00 to 7.70

Cc1nc2ccc(Oc3ccc4ncc(-c5cnn(CC6CC(F)(F)C6)c5)nc4c3C3CC3)cc2[nH]1 [Compound 216]
pIC50 [1]: 6.40 to 7.00 | pIC50 [2]: 6.40 to 7.00 | pIC50 [3]: ≤ 6.40 | pIC50 [4]: 6.40 to 7.00

Cc1nc2ccc(Oc3ccc4ncc(-c5cnn(C6CN(CC7COC7)C6)c5)nc4c3Cl)cc2[nH]1 [Compound 217]
pIC50 [1]: 7.00 to 7.70 | pIC50 [2]: 7.00 to 7.70 | pIC50 [3]: ≤ 6.40 | pIC50 [4]: 7.00 to 7.70

Cc1nc2ccc(Oc3ccc4ncc(-c5cnn(C6CC7(C6)CN(C6COC6)C7)c5)nc4c3Cl)cc2[nH]1 [Compound 218]
pIC50 [1]: 7.00 to 7.70 | pIC50 [2]: 7.00 to 7.70 | pIC50 [3]: 6.40 to 7.00 | pIC50 [4]: 7.00 to 7.70

CCc1nc2cc(Oc3ccc4ncc(-c5cnn(CC6CC(F)(F)C6)c5)nc4c3Cl)ccc2[nH]1 [Compound 219]
pIC50 [1]: 6.40 to 7.00 | pIC50 [2]: 6.40 to 7.00 | pIC50 [3]: ≤ 6.40 | pIC50 [4]: 6.40 to 7.00

Cc1nc2ccc(Oc3ccc4ncc(-c5cnn(C6CN(CC7(F)CC7)C6)c5)nc4c3Cl)cc2[nH]1 [Compound 220]
pIC50 [1]: 7.00 to 7.70 | pIC50 [2]: 7.00 to 7.70 | pIC50 [3]: ≤ 6.40 | pIC50 [4]: 7.00 to 7.70
